From US8268751B2, “Combination of active substances with insecticidal properties” (Bayer Cropscience AG, priority 2003, dated 2012)

How the values were obtained:
Assay type in all cases: in vivo
[1] = tested on: Plutella xylostella, resistant strain; experiment: Plutella-xylostella test (resistant strain), cabbage leaf dip
Source text: (§1) The expected action for a given combination of two active compounds can be calculated as follows, according to S. R. Colby, Weeds 15 (1967), 20-22:
(§2) If • X is the kill rate, expressed as a percentage of the untreated control, when employing active compound A at an application rate of m g/ha or in a concentration of m ppm, • Y is the kill rate, expressed as a percentage of the untreated control, when employing active compound B at an application rate of n g/ha or in a concentration of n ppm and • E is the kill rate, expressed as a percentage of the untreated control, when employing active compounds A and B at application rates of m and n g/ha or in a concentration of m and n ppm, then
(§3) If the actual insecticidal kill rate exceeds the calculated value, the action of the combination is superadditive, i.e. a synergistic effect is present. In this case, the actually observed kill rate must exceed the value calculated using the above formula for the expected kill rate (E).
Plutella-xylostella Test (Resistant Strain)
(§4) To produce a suitable preparation of active compound, 1 part by weight of active compound is mixed with the stated amounts of solvent and emulsifier, and the concentrate is diluted with emulsifier-containing water to the desired concentration.
Cabbage leaves (Brassica oleracea) are treated by being dipped into the preparation of active compound of the desired concentration and are populated with caterpillars of the diamond back moth (Plutella xylostella, resistant strain), while the leaves are still moist.
After the desired period of time, the kill in % is determined. 100% means that all caterpillars have been killed; 0% means that none of the caterpillars have been killed. The kill rates determined are calculated using Colby's formula (see page 39).

[2] = tested on: Myzus persicae; experiment: Myzus persicae test (cabbage leaf dip)
Source text: as §1, §2, §3, §4
Cabbage leaves (Brassica oleracea) which are heavily infested by the green peach aphid (Myzus persicae) are treated by being dipped into the preparation of active compound of the desired concentration.
After the desired period of time, the kill in % is determined. 100% means that all aphids have been killed; 0% means that none of the aphids have been killed. The kill rates determined are calculated using Colby's formula (see page 39).

[3] = tested on: Phaedon cochleariae larvae; experiment: Phaedon cochleariae larvae test (cabbage leaf dip); conditions: Table B, 0.16 ppm
Source text: as §1, §2, §3
Phaedon cochleariae Larvae Test
To produce a suitable preparation of active compound, 1 part by weight of active compound is mixed with the stated amounts of solvent and emulsifier, and the concentrate is diluted with emulsifier-containing water to the desired concentration. […]
After the desired period of time, the kill in % is determined. […] The kill rates determined are calculated using Colby's formula (see page 39).

[4] = tested on: Spodoptera frugiperda; experiment: Spodoptera frugiperda test (cabbage leaf dip); conditions: Table D, 0.032 ppm
Source text: as §1, §2, §3
Spodoptera frugiperda Test […]
After the desired period of time, the kill in % is determined: 100% means that all caterpillars have been killed; 0% means that none of the caterpillars have been killed. The kill rates determined are calculated using Colby's formula (see page 39).

Row | SMILES | Kill rate in % after 6 d, found ([1]; Table C2, 0.0064 ppm) [%] | Kill rate in % after 6 d, found ([2]; Table A2, 0.032 ppm) [%] | Kill rate in % after 6 d, found ([2]; Table A1, 0.16 ppm) [%] | Kill rate in % after 6 d, found ([1]; Table C1, 0.0064 ppm) [%] | Kill rate in % after 3 d, found [3] [%] | Kill rate in % after 6 d, found ([2]; Table A1, 4 ppm) [%] | Kill rate in % after 6 d, found ([2]; Table A2, 0.8 ppm) [%] | Kill rate in % after 6 d, found [4] [%]
1 | CC1(C)C(/C=C(\Cl)C(F)(F)F)C1C(=O)OC(C#N)c1cccc(Oc2ccccc2)c1 (stereo not drawn) [(2-12) lambda-cyhalothrin, lambda-cyhalothrin] | 0 | 0 | – | – | – | – | – | –
2 | CC1(C)C(C=C(Br)Br)C1C(=O)OC(C#N)c1cccc(Oc2ccccc2)c1 (stereo not drawn) [(2-6) deltamethrin, deltamethrin] | – | – | 50 | – | – | – | – | –
3 | Cc1cc(Cl)cc(C(=O)NC(C)C)c1NC(=O)c1cc(C(F)(F)F)nn1-c1ncccc1Cl [Example I-1-9] | 10 | – | – | 0 | 0 | 15 | 0 | 75
4 | CC1(C)C(C=C(Cl)Cl)C1C(=O)OC(C#N)c1ccc(F)c(Oc2ccccc2)c1 (stereo not drawn) [(2-3) betacyfluthrin, betacyfluthrin] | – | – | – | 0 | 15 | – | – | 0
